Columns and labels:
[1] = system: RKO (RKOp27) human colon adenocarcinoma cells; assay: Alamar Blue cell viability assay, anti-proliferative/cytotoxic activity on proliferating RKO subclones; format: cell-based; details: RKOp27, 72 h, RKO p27 uninduced (proliferating) cells, value = class bound given in Table A, read-out: −logIC50 RKO p27 uninduced (proliferating) (converted)
Method in brief: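 RKOp27 subclones (5000 cells/well) were exposed 24 h after seeding to semi-log compound dilutions in DMEM with 10% FCS, in quadruplicate, for 72 h at 37 °C. Viability was read by Alamar Blue fluorescence (544/590 nm) relative to untreated cells (1% DMSO medium). IC50 came from concentration-effect curves and is reported as −log IC50 [mol/l].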

[2] = system: subclones of RKO colon adenocarcinoma cells (RKOp27 or RKOp21) arrested by Ponasterone A; assay: Alamar Blue cell viability assay, cell cycle specific mode of action: cells arrested by ectopic p27Kip1 induced by Ponasterone A versus proliferating cells; format: cell-based; details: Homo sapiens, RKO p27 induced (arrested) cells, 10 μM Ponasterone A, 72 hours, value = class bound given in Table A, read-out: −logIC50 RKO p27 induced (arrested) (converted)
Method in brief: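 RKOp27 or RKOp21 cells, 15000/well in DMEM/10% FCS, either arrested by p27Kip1 induced with 10 μM Ponasterone A or proliferating without inducer; compound added after 24 h, 72 h at 37° C. Alamar Blue fluorescence (544/590 nm), viability as % of untreated cells; −log IC50 reported.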

SMILES | IC50 [1] [µM] | IC50 [2] [µM]
CCOc1ccccc1CCC(=O)Nc1sc2c(c1C#N)CCC(OC(=O)NCc1cnn(C)c1)C2 (stereo not shown) [Example 170, (1-Methyl-1H-pyrazol-4-ylmethyl)-carbamic acid 3-cyano-2-[3-(2-ethoxy-phenyl)-propanoylamino]-4,5,6,7-tetrahydro-benzo[b]thiophen-6-yl ester] | ≤ 0.501 | ≥ 100
CCOc1ccccc1CCC(=O)Nc1sc2c(c1C#N)CCC(OC(=O)NCc1ccncc1)C2 (stereo not shown) [Example 171, Pyridin-4-ylmethyl-carbamic acid 3-cyano-2-[3-(2-ethoxy-phenyl)-propanoylamino]-4,5,6,7-tetrahydro-benzo[b]thiophen-6-yl ester] | ≤ 0.501 | ≥ 50.1
CCOc1ccccc1CCC(=O)Nc1sc2c(c1C#N)CCC(OC(=O)NCc1cc(C)on1)C2 (stereo not shown) [Example 172, (5-Methyl-isoxazol-3-ylmethyl)-carbamic acid 3-cyano-2-[3-(2-ethoxy-phenyl)-propanoylamino]-4,5,6,7-tetrahydro-benzo[b]thiophen-6-yl ester] | ≤ 0.501 | ≥ 100
CCOc1ccccc1CCC(=O)Nc1sc2c(c1C#N)CCC(OC(=O)NCc1nccn1C)C2 (stereo not shown) [Example 173, (1-Methyl-1H-imidazol-2-ylmethyl)-carbamic acid 3-cyano-2-[3-(2-ethoxy-phenyl)-propanoylamino]-4,5,6,7-tetrahydro-benzo[b]thiophen-6-yl ester] | ≤ 0.501 | ≥ 10
CCOc1ccccc1CCC(=O)Nc1sc2c(c1C#N)CCC(OC(=O)NCc1ccccn1)C2 (stereo not shown) [Example 174, Pyridin-2-ylmethyl-carbamic acid 3-cyano-2-[3-(2-ethoxy-phenyl)-propanoylamino]-4,5,6,7-tetrahydro-benzo[b]thiophen-6-yl ester] | ≤ 0.501 | ≥ 100
CCOc1ccccc1CCC(=O)Nc1sc2c(c1C#N)CCC(COC(=O)NCc1cccnc1)C2 (stereo not shown) [Example 175, Pyridin-3-ylmethyl-carbamic acid 3-cyano-2-[3-(2-ethoxy-phenyl)-propanoylamino]-4,5,6,7-tetrahydro-benzo[b]thiophen-6-ylmethyl ester] | ≤ 0.501 | ≥ 100
CCOc1ccccc1CCC(=O)Nc1sc2c(c1C#N)CCC(COC(=O)NCCc1cccnc1)C2 (stereo not shown) [Example 176, (2-Pyridin-3-yl-ethyl)-carbamic acid 3-cyano-2-[3-(2-ethoxy-phenyl)-propanoylamino]-4,5,6,7-tetrahydro-benzo[b]thiophen-6-ylmethyl ester] | ≤ 0.501 | ≥ 100
CCOc1ccccc1CCC(=O)Nc1sc2c(c1C#N)CCC(COC(=O)NCc1cncn1C)C2 (stereo not shown) [Example 177, (3-Methyl-3H-imidazol-4-ylmethyl)-carbamic acid 3-cyano-2-[3-(2-ethoxy-phenyl)-propanoylamino]-4,5,6,7-tetrahydro-benzo[b]thiophen-6-ylmethyl ester] | ≤ 0.501 | ≥ 50.1
CCOc1ccccc1CCC(=O)Nc1sc2c(c1C#N)CCC(COC(=O)NCc1cn(C)cn1)C2 (stereo not shown) [Example 178, (1-Methyl-1H-imidazol-4-ylmethyl)-carbamic acid 3-cyano-2-[3-(2-ethoxy-phenyl)-propanoylamino]-4,5,6,7-tetrahydro-benzo[b]thiophen-6-ylmethyl ester] | ≤ 0.501 | ≥ 50.1
CCOc1ccccc1CCC(=O)Nc1sc2c(c1C#N)CCC(COC(=O)NCc1ncc[nH]1)C2 (stereo not shown) [Example 179, (1H-Imidazol-2-ylmethyl)-carbamic acid 3-cyano-2-[3-(2-ethoxy-phenyl)-propanoylamino]-4,5,6,7-tetrahydro-benzo[b]thiophen-6-ylmethyl ester] | ≤ 0.501 | ≥ 10
CCOc1ccccc1CCC(=O)Nc1sc2c(c1C#N)CCC(COC(=O)NCc1ccnn1C)C2 (stereo not shown) [Example 180, (2-Methyl-2H-pyrazol-3-ylmethyl)-carbamic acid 3-cyano-2-[3-(2-ethoxy-phenyl)-propanoylamino]-4,5,6,7-tetrahydro-benzo[b]thiophen-6-ylmethyl ester] | ≤ 0.501 | ≥ 100
CCOc1ccccc1CCC(=O)Nc1sc2c(c1C#N)CCC(COC(=O)NCc1ccncc1)C2 (stereo not shown) [Example 181, Pyridin-4-ylmethyl-carbamic acid 3-cyano-2-[3-(2-ethoxy-phenyl)-propanoylamino]-4,5,6,7-tetrahydro-benzo[b]thiophen-6-ylmethyl ester] | ≤ 0.501 | ≥ 100
CCOc1ccccc1CCC(=O)Nc1sc2c(c1C#N)CCC(COC(=O)NCc1cc(C)on1)C2 (stereo not shown) [Example 182, (5-Methyl-isoxazol-3-ylmethyl)-carbamic acid 3-cyano-2-[3-(2-ethoxy-phenyl)-propanoylamino]-4,5,6,7-tetrahydro-benzo[b]thiophen-6-ylmethyl ester] | ≤ 0.501 | ≥ 100
CCOc1ccccc1CCC(=O)Nc1sc2c(c1C#N)CCC(COC(=O)NCc1nccn1C)C2 (stereo not shown) [Example 183, (1-Methyl-1H-imidazol-2-ylmethyl)-carbamic acid 3-cyano-2-[3-(2-ethoxy-phenyl)-propanoylamino]-4,5,6,7-tetrahydro-benzo[b]thiophen-6-ylmethyl ester] | ≤ 0.501 | ≥ 50.1
CCOc1ccccc1CCC(=O)Nc1sc2c(c1C#N)CCC(COC(=O)NCc1ccccn1)C2 (stereo not shown) [Example 184, Pyridin-2-ylmethyl-carbamic acid 3-cyano-2-[3-(2-ethoxy-phenyl)-propanoylamino]-4,5,6,7-tetrahydro-benzo[b]thiophen-6-ylmethyl ester] | ≤ 0.501 | ≥ 100
CCOc1ccccc1CCC(=O)Nc1sc2c(c1C#N)CCC(OC(=O)NCc1ncc[nH]1)C2 (stereo not shown) [Example 185, (1H-Imidazol-2-ylmethyl)-carbamic acid 3-cyano-2-[3-(2-ethoxy-phenyl)-propanoylamino]-4,5,6,7-tetrahydro-benzo[b]thiophen-6-yl ester] | ≤ 0.501 | ≥ 10
COC(=O)OC1CCc2c(sc(NC(=O)CCc3cccnc3)c2C#N)C1 (stereo not shown) [Example 186, Carbonic acid 3-cyano-2-(3-pyridin-3-yl-propanoylamino)-4,5,6,7-tetrahydro-benzo[b]thiophen-6-yl ester methyl ester] | 0.501 to 2 | ≥ 100
CCOc1ccccc1CCC(=O)Nc1sc2c(c1C#N)CCC(COC(=O)NCC1CCOCC1)C2 (stereo not shown) [Example 194, (Tetrahydro-pyran-4-ylmethyl)-carbamic acid 3-cyano-2-[3-(2-ethoxy-phenyl)-propanoylamino]-4,5,6,7-tetrahydro-benzo[b]thiophen-6-ylmethyl ester] | ≤ 0.501 | ≥ 10
CCOc1ccccc1CCC(=O)Nc1sc2c(c1C#N)CCC(COC(=O)NCc1conc1C)C2 (stereo not shown) [Example 198, (3-Methyl-isoxazol-4-ylmethyl)-carbamic acid 3-cyano-2-[3-(2-ethoxy-phenyl)-propanoylamino]-4,5,6,7-tetrahydro-benzo[b]thiophen-6-ylmethyl ester] | ≤ 0.501 | ≥ 100
CCOc1ccccc1CCC(=O)Nc1sc2c(c1C#N)CCC(COC(=O)NCc1nccs1)C2 (stereo not shown) [Example 199, Thiazol-2-ylmethyl-carbamic acid 3-cyano-2-[3-(2-ethoxy-phenyl)-propanoylamino]-4,5,6,7-tetrahydro-benzo[b]thiophen-6-ylmethyl ester] | ≤ 0.501 | ≥ 100

From patent US20110044938A1 (NYCOMED GMBH, priority 2006, published 2011)
